Molecules are shown by their SMILES.

One series has as its system hIL-6 mRNA. As to the kind of experiment: Inhibition of hIL-6 mRNA transcription in LPS-stimulated U937 macrophages. The format is cell-based, Human. To be noted: Homo sapiens, U-937, PMA-differentiated U937 cells, 1 h pretreatment, LPS 3 h, read-out: IL-6 activity. In outline:
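PMA-differentiated U937 macrophages (60 ng/mL PMA, 3 days) pretreated 1 h with compound in 0.1% DMSO, then stimulated with 1 ug/mL E. coli LPS for 3 h at 37° C. IL-6 mRNA quantified by one-step TaqMan qRT-PCR, normalized to cyclophilin; fold expression relative to control, triplicate wells.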

A further series concerns hApoA-1 mRNA. Briefly: Up-regulation of hApoA-1 mRNA transcription in Huh7 cells. It counts as cell-based. The settings on record: Homo sapiens, Huh-7, EC170 of hApoA-1 mRNA up-regulation, 48 h, read-out: ApoA-1 activity. As to the method: Huh7 cells (2.5×10^5 per well) were plated in a 96-well plate using 100 μL DMEM per well, (Gibco DMEM supplemented with penicillin/streptomycin and 10% FBS), 72 h before the addition of the compound. The cells are treated with increasing concentrations of the compound or DMSO (0.1%), and incubated at 37° C., 5% CO2 for 48 h. Spent media was removed from the Huh-7 cells and placed on ice for immediate use with the “LDH cytotoxicity assay Kit II” from Abcam. The cells remaining in the plate were rinsed with 100 μL PBS. Cells were harvested using the mRNA Catcher PLUS kit according to manufacturer's instructions. The eluted mRNA was then used in a one-step quantitative real-time PCR reaction, using components of the RNA UltraSense™ One-Step Kit (Life Technologies) together with Applied Biosystems TaqMan® primer-probes for hApoA-1 and Cyclophilin. Real-time PCR plates were run on a ViiA™7 real time PCR machine (Applied Biosystems), data was analyzed, normalizing the Ct values for hApoA-1 to an internal control, prior to determining the fold induction of each unknown sample, relative to the control.

Another series deals with hIL-17 mRNA. Briefly: Inhibition of hIL-17 mRNA transcription in OKT3-stimulated peripheral blood mononuclear cells. It counts as cell-based. The settings on record: human PBMC, OKT3 stimulation 6 h, read-out: IL-17 Activity. As to the method:
Human peripheral blood mononuclear cells were plated (2.0×10^5 cells per well) in a 96-well plate in 45 μL OpTimizer T Cell expansion media (Life Technologies) containing 20 ng/ml IL-2 and penicillin/streptomycin. The cells were treated with increasing concentrations of the test compound or DMSO (0.1%), and incubated at 37° C., 5% CO2 for 1 h before addition of 10× stock OKT3 antibody at 10 ug/ml in media. Triplicate wells were used for each concentration. Cells were incubated at 37° C., 5% CO2 for 6 h before the cells were harvested. At time of harvest, cells were pelleted by centrifugation at 800 rpm for 5 min. Cells were harvested using the mRNA Catcher PLUS kit according to manufacturer's instructions. The eluted mRNA was then used in a one-step quantitative real-time PCR reaction, using components of the RNA UltraSense™ One-Step Kit (Life Technologies) together with Applied Biosystems TaqMan® primer-probes for hIL-17 and Cyclophilin. Real-time PCR plates were run on a ViiA™7 real time PCR machine (Applied Biosystems), data was analyzed, normalizing the Ct values for hIL-17 to an internal control, prior to determining the fold induction of each unknown sample, relative to the control.

The test system of a further series is Human AML MV-4-11 cells. Briefly: Inhibition of cell proliferation in MV4-11 cells (CellTiter Aqueous One). It counts as cell-based. The settings on record: MV4-11, 72 h. In outline: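 MV4-11 cells, 5×10^4 per well in IMDM with 10% FBS, were exposed to increasing compound concentrations or 0.1% DMSO for 72 h at 37 °C in triplicate. Viability was read by MTS (CellTiter Aqueous One) absorbance at 490 nm after 3-4 h. IC50 was derived from background-corrected signal relative to DMSO.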

Series [1] has as its system c-myc in Human AML MV4-11 cells. As to the kind of experiment: Inhibition of cMYC expression (mRNA, real-time PCR) in MV4-11 cells. The format is cell-based. To be noted: 3 h treatment, cMYC mRNA by real-time PCR. In outline:
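MV4-11 cells in IMDM with 10% FBS were treated with increasing compound concentrations (DMSO 0.1%) for 3 h at 37 °C, in triplicate. Isolated mRNA was quantified by one-step TaqMan RT-qPCR, cMYC Ct normalized to cyclophilin, and fold expression given relative to DMSO control.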
On the technique in general: In qPCR the cycle at which signal appears reflects the starting amount.

For series [2], the target named is Brd4 bromodomain 1 (BRD4(1)) (Homo sapiens, UniProt O60885). Briefly: Inhibition of tetra-acetylated histone H4 binding to Brd4 bromodomain 1, measured by FRET (HTRF). Also noted: made in house; host or cells: E. coli BL21(DE3). The settings on record: 2 h at room temperature. In outline:
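N-terminally His-tagged bromodomain (200 nM), expressed in E. coli and purified by Ni affinity and size exclusion, was incubated with biotinylated tetra-acetylated H4 peptide (25-50 nM), Eu-cryptate streptavidin and XL665 anti-His in HEPES pH 7.4 buffer with 0.2% DMSO. Reactions ran 2 h at room temperature. IC50 came from the 665/620 nm fluorescence decrease.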

Another series relates to MV4-11 cells. As to the kind of experiment: In vivo efficacy in athymic nude mouse acute myeloid leukemia xenograft model using MV4-11 cells. To be noted: athymic nude mouse AML xenograft (MV4-11), oral dosing. As to the method:
MV4-11 cells (ATCC) were grown under standard cell culture conditions and (NCr) nu/nu fisol strain of female mice age 6-7 weeks were injected with 5×10^6 cells/animal in 100 μL PBS+100 μL Matrigel in the lower left abdominal flank. By approximately day 18-21 after MV4-11 cells injection, mice were randomized based on tumor volume (L×W×H)/2) of average ˜100-300 mm^3. Mice were dosed orally with compound at 5 to 120 mg/kg b.i.d and/or q.d. on a continuous dosing schedule and at 2.5 to 85 mg/kg q.d. on a 5 day on 2 day off, 100 mg/kg q.d. on a 4 day on and 3 day off, 135 mg/kg q.d. on a 3 day on and 4 day off, 180 mg/kg on a 2 day on and 5 day off and 240 mg/kg on a 1 day on and 6 days off dosing schedules in EA006 formulation at 10 mL/kg body weight dose volume. Tumor measurements were taken with electronic micro calipers and body weights measured on alternate days beginning from dosing period. The average tumor volumes, percent Tumor Growth Inhibition (TGI) and % change in body weights were compared relative to Vehicle control animals. The means, statistical analysis and the comparison between groups were calculated using Student's t-test in Excel.

Take `Cc1noc(C)c1-c1cc(NCc2ccccc2)c2nc[nH]c2c1` [Example Compound 4]: the IC50 with hIL-6 mRNA was 300 to 3000 nM; in the series on hIL-17 mRNA it was 300 to 3000 nM; with Human AML MV-4-11 cells it was 300 to 3000 nM; in series [1], 300 to 3000 nM; in series [2], not above 300 nM. Moreover, the EC170 in the series with hApoA-1 mRNA lay within 3 to 30 µM.
Consider `Cc1noc(C)c1-c1nc(NCc2ccccc2)c2ccccc2n1` [Example Compound 5, N-benzyl-2-(3,5-dimethylisoxazol-4-yl)quinazolin-4-amine], for which the EC170 in the series on hApoA-1 mRNA was not above 0.3 µM. Moreover, in series [2], the IC50 lay within 3000 to 30000 nM.
Turning to `Cc1noc(C)c1-c1cc(-c2c(C)nn(C)c2C)c2nc[nH]c2c1` [Example Compound 9, 3,5-dimethyl-4-(4-(1,3,5-trimethyl-1H-pyrazol-4-yl)-1H-benzo[d]imidazol-6-yl)isoxazole], the IC50 in the series on hIL-6 mRNA is not above 300 nM; in the series with hIL-17 mRNA, not above 300 nM; in the series with Human AML MV-4-11 cells it was 300 to 3000 nM; in series [1] it was 300 to 3000 nM; in series [2] it was not above 300 nM. Moreover, in the series with MV4-11 cells, the In vivo activity result is reported as “Active”.
Consider `Cc1ncccc1-c1cc(-c2c(C)noc2C)cc2[nH]cnc12` [Example Compound 27, 3,5-dimethyl-4-(4-(2-methylpyridin-3-yl)-1H-benzo[d]imidazol-6-yl)isoxazole], for which the IC50 is not above 300 nM in the series with hIL-6 mRNA; not above 300 nM in the series on hIL-17 mRNA; 300 to 3000 nM in the series on Human AML MV-4-11 cells; 300 to 3000 nM in series [1]; not above 300 nM in series [2]. Moreover, the In vivo activity result in the series with MV4-11 cells is given as “Active”.
With `Cc1nn(C)c(C)c1CNc1cc(-c2c(C)noc2C)cc2[nH]cnc12` [Example Compound 37, 6-(3,5-dimethyl-isoxazol-4-yl)-N-((1,3,5-trimethyl-1H-pyrazol-4-yl)methyl)-1H-benzo[d] imidazol-4-amine], the IC50 in the series with hIL-6 mRNA is 300 to 3000 nM; with hIL-17 mRNA, 300 to 3000 nM; in the series with Human AML MV-4-11 cells, 300 to 3000 nM; in series [1], 300 to 3000 nM; in series [2] it was not above 300 nM. For the same compound, the EC170 in the series on hApoA-1 mRNA is not above 0.3 µM.
As for `Cc1noc(C)c1-c1cc(-c2cccc(C#N)c2C)c2nc[nH]c2c1` [Example Compound 57, 3-(6-(3,5-dimethyl-isoxazol-4-yl)-1H-benzo[d]imidazol-4-yl)-2-methyl-benzonitrile], the IC50 with hIL-6 mRNA was not above 300 nM; with hIL-17 mRNA it was 300 to 3000 nM; with Human AML MV-4-11 cells it was not above 300 nM; in series [1] it was not above 300 nM; in series [2], not above 300 nM. The EC170 in the series on hApoA-1 mRNA is not above 0.3 µM.
`Cc1nc2c(-c3cn(C)nc3C)cc(-c3c(C)noc3C)cc2[nH]1` [Example Compound 60, 4-(4-(1,3-dimethyl-1H-pyrazol-4-yl)-2-methyl-1H-benzo[d]imidazol-6-yl)-3,5-dimethyl-isoxazole]: the IC50 in the series on hIL-6 mRNA is not above 300 nM; with hIL-17 mRNA it was 300 to 3000 nM; in the series on Human AML MV-4-11 cells it was 300 to 3000 nM; in series [1], not above 300 nM; in series [2], not above 300 nM. Besides, the EC170 with hApoA-1 mRNA is not above 0.3 µM.
`Cc1nc2c(-c3c(C)cncc3C)cc(-c3c(C)noc3C)cc2[nH]1` [Example Compound 97, 4-(4-(3,5-dimethyl-pyridin-4-yl)-2-methyl-1H-benzo[d]imidazol-6-yl)-3,5-dimethyl isoxazole]: the IC50 was not above 300 nM in the series with hIL-6 mRNA; 300 to 3000 nM in the series with hIL-17 mRNA; 300 to 3000 nM with Human AML MV-4-11 cells; 300 to 3000 nM in series [1]; not above 300 nM in series [2]. In the series on hApoA-1 mRNA, the EC170 is not above 0.3 µM.
On to `Cc1noc(C)c1-c1cc(-c2c(C)nn(C)c2C)c2nc(N3CCN(C)CC3)[nH]c2c1` [Example Compound 181, 3,5-dimethyl-4-(2-(4-methylpiperazin-1-yl)-4-(1,3,5-trimethyl-1H-pyrazol-4-yl)-1H benzo[d]imidazol-6-yl)isoxazole], for which the melting point (in general, the temperature, or range, at which the solid turns liquid) was in the range of 195 to 197 °C. Moreover, the IC50 in the series with hIL-6 mRNA is not above 300 nM. Also, the IC50 in the series with Human AML MV-4-11 cells was not above 300 nM. Moreover, in series [1], the IC50 is not above 300 nM. Also, in series [2], the IC50 was not above 300 nM.
In turn, `Cc1noc(C)c1-c1cc(-c2c(C)noc2C)c2nc[nH]c2c1Br` [Example Compound 192, 4,4′-(7-bromo-1H-benzo[d]imidazole-4,6-diyl)bis(3,5-dimethylisoxazole)] displayed a melting point of 133 to 135 °C. In the series on Human AML MV-4-11 cells, the IC50 was in the range of 3000 to 30000 nM. In series [1], this compound returned an IC50 of 300 to 3000 nM. Besides, in series [2], the IC50 is not above 300 nM.
The corresponding values for `Cc1noc(C)c1-c1cc(-c2c(C)nn(C)c2C)c2[nH]c(S(C)(=O)=O)nc2c1` [Example Compound 195, 3,5-dimethyl-4-(2-(methylsulfonyl)-4-(1,3,5-trimethyl-1H-pyrazol-4-yl)-1H-benzo[d]imidazol-6-yl)isoxazole] are 254 to 256 °C, 300 to 3000 nM, 300 to 3000 nM and not above 300 nM.
For the compound `Cc1ccncc1-c1cc(-c2c(C)noc2C)cc2[nH]c(N3CCOCC3)nc12` [Example Compound 196, 4-(6-(3,5-dimethylisoxazol-4-yl)-4-(4-methylpyridin-3-yl)-1H-benzo[d]imidazol-2-yl)morpholine], the melting point was 137 to 141 °C. The compound further gave an IC50 in the series on Human AML MV-4-11 cells of 300 to 3000 nM. Besides, the IC50 in series [1] was in the range of 300 to 3000 nM. In addition, in series [2], the IC50 lay in the range of 300 to 3000 nM.
As for `Cc1noc(C)c1-c1cc(-c2cccc(C#N)c2C)c2nc(N3CCN(C)CC3)[nH]c2c1` [Example Compound 202, 3-(6-(3,5-dimethylisoxazol-4-yl)-2-(4-methylpiperazin-1-yl)-1H-benzo[d]imidazol-4-yl)-2-methylbenzonitrile], the melting point was in the range of 179 to 182 °C. The compound further had an IC50 in the series on Human AML MV-4-11 cells not above 300 nM. The compound further displayed an IC50 in series [1] not above 300 nM. Moreover, the IC50 in series [2] was 300 to 3000 nM.

These data come from patent US9999616B2 (ZENITH EPIGENETICS LTD., priority 2013, dated 2018).
